Source: US7081457B2 (Wyeth, priority 1999, dated 2006)

How the values were obtained:
alkaline phosphatase = test: cells; conditions: read-out: EC50 (alkaline phosphatase data, printed in HPR CV-1 column)
ovulation = test: Ovulation Inhibition; conditions: in vivo

| Structure (SMILES) | melting point [°C] | EC50 (alkaline phosphatase) [nM] | Ovulation Inhibition ED100 (ovulation) [mg/kg] |
| --- | --- | --- | --- |
| CC1(C)OC(=S)Nc2ccc(-c3cccc(C#N)c3)cc21 [Compound 4, 3-(4,4-Dimethyl-2-thioxo-1,4-dihydro-2H-benzo[d][1,3]oxazin-6-yl)-benzonitrile] | 236 to 237 | 0.4 |  |
| CC1(C)OC(=S)Nc2ccc(-c3csc(C#N)c3)cc21 [Compound 2, 4-(4,4-Dimethyl-2-thioxo-1,4-dihydro-2H1-benzo [d][1,3]oxazin-6-yl)-thiophene-2-carbonitrile] |  |  | 1 |
| CC1(C)OC(=S)Nc2ccc(-c3cc(C#N)ccc3F)cc21 [Example 47, 3-(4,4-Dimethyl-2-thioxo-1,4-dihydro-2H-3,1-benzoxazin-6-yl)-4-fluorobenzonitrile] | 250 to 251 |  |  |
| Cc1cc(C#N)sc1-c1ccc2c(c1)C(C)(C)OC(=S)N2 [Example 16, 5-(4,4-Dimethyl-2-thioxo-1,4-dihydro-2H-3,1-benzoxazin-6-yl)-4-methylthiophene-2-carbonitrile] | 211 to 212 |  |  |

Now from value to compound, other results behind:

| melting point [°C] | Structure (SMILES) | EC50 (alkaline phosphatase) [nM] | Ovulation Inhibition ED100 (ovulation) [mg/kg] |
| --- | --- | --- | --- |
| 204 to 206 | CC1(C)OC(=S)Nc2ccc(-c3cc(F)cc(C(F)(F)F)c3)cc21 [Example 43, 6-[3-Fluoro-5-(trifluoromethyl)phenyl]-4,4-dimethyl-1,4-dihydro-2H-3,1-benzoxazine-2-thione] |  |  |
| 204 to 205 | CC1(C)OC(=S)Nc2ccc(-c3cc(F)cc(Cl)c3)cc21 [Example 27, 6-(3-Chloro-5-fluorophenyl)-4,4-dimethyl-1,4-dihydro-2H-3,1-benzoxazine-2-thione] |  |  |
